Data reported in patent US20220152087A1, “CYCLODEXTRIN DERIVATIVES REDUCING FLAVIVIRUS NS1-INDUCED ENDOTHELIAL HYPERPERMEABILITY AND VASCULAR LEAK” (priority 2020, published 2022).

System: endothelial dysfunction induced by DENV NS1 in HPMEC monolayers
Experiment: Effect of cyclodextrins on endothelial dysfunction induced by DENV NS1 (TEER of HPMEC monolayers in transwells)
Format: cell-based, human
Details: DENV NS1 at 10 micrograms/mL, TEER 2 to 10 hours post-treatment, AUC vs DENV NS1-only control
Method: The present invention is based on the evaluation of the in vitro efficacy against DENV NS1-mediated pathogenesis of a series of different CDs that display variable cavity sizes as well as different degrees and types of substitution. In an in vitro model of endothelial permeability, CDs, at concentrations with no anticoagulant effects, were added to human pulmonary microvascular endothelial cells (HPMECs) treated with DENV NS1 to induce endothelial hyperpermeability.
Endothelial disruption (hyperpermeability) was quantified by measuring transendothelial electrical resistance (TEER). […] Sulfate group substitution of cyclodextrins contributed to the anti-leak activity.
The method is suitable to study the effect of NS1 from DENV from all serotypes and NS1 from other flaviviruses. HPMEC monolayers (6×10^4 cells/transwell) cultured in transwell inserts for three days were treated with the CD compounds then treated or not with DENV NS1 at 10 micrograms/mL. Recombinant NS1 protein from DENV (Strain 16681) weas certified to be endotoxin-free and >95% purity (Native Antigen, United Kingdom). TEER was measured from 2 to 10 hours post-treatment. The area under the curve of the different treatments+DENV NS1 was compared by one-way ANOVA plus Dunnett's test to the DENV NS1-only control.
Randomly substituted alpha-cyclodextrin sulfate sodium salt (average degree of substitution: ˜12) was used as specified according to Example 1. […] A) HPMEC monolayers (6×10e4 cells/transwell) cultured in transwell inserts for three days were treated with the compounds in the presence or absence of DENV NS1 at 10 ug/mL. TEER was measured from 2 to 10 hours post-treatment. Relative TEER was calculated as the ratio between resistance values obtained in the different treatments and medium-only controls. B) Area under the curve of the different treatments was compared by one-way ANOVA plus Dunnett's test to the DENV NS1control. P-values are summarized with number of asterisks as follows: *p≤0.05, **p≤0.01, ***p≤0.001, ****p≤0.0001. The effective dose of cyclodextrin for hindering endothelial leakage was 10 micrograms/mL.

Substance | effective dose of cyclodextrin for hindering endothelial leakage / hyperpermeability
2,3-di-OH-6-sulfo-gamma cyclodextrin sodium salt | 10 micrograms/mL
2,3-dimethyl-6-sulfate-alpha cyclodextrin sodium salt | 250 micrograms/mL
2,3-dimethyl-6-sulfate-beta cyclodextrin sodium salt | 100 micrograms/mL
2,3-dimethyl-6-sulfate-gamma cyclodextrin sodium salt | 100 micrograms/mL
2-hydroxypropyl-beta-cyclodextrin [reference compound] | 1000 micrograms/mL
2-hydroxypropyl-gamma-cyclodextrin | 1000 micrograms/mL
alpha-cyclodextrin sulfate sodium salt | 10 micrograms/mL
beta cyclodextrin sulfate sodium salt | 10 micrograms/mL
gamma cyclodextrin sulfate sodium salt | 10 micrograms/mL
sulfobutlyether beta cyclodextrin sodium salt | 100 micrograms/mL
sulfopropylether alpha cyclodextrin sodium salt | 1000 micrograms/mL
sulfopropylether beta cyclodextrin sodium salt | 1000 micrograms/mL
sulfopropylether gamma cyclodextrin sodium salt | 1000 micrograms/mL
